Assay results from patent publication US11160871B2, “SSTR-targeted conjugates and particles and formulations thereof” (TARVEDA THERAPEUTICS, INC., priority 2015, dated 2021).
pIC50, pKi: −log10 of the molar value.

Assays:
[1] = test system: NCI-H69 small cell lung cancer model; assay: NCI-H69 model, comparison with standard of care combination; assay type: in vivo, rats; conditions: Cycle 1 Day 1, Cycle 2 Day 8; Conjugate 57 one cycle at MTD (2 mg/kg), other doses equivalent
Protocol: In yet another study, single cycle of Conjugate 57 treatment was compared with two cycles of standard of care combination in NCI-H69 small cell lung cancer model. NCI-H69 bearing rats were treated with two cycles of cctreotide+DM1, one or two cycles of cisplatin+etoposide, one cycle of Conjugate 57. Cycle 1 was given on Day 1, Cycle 2 on Day 8. Rats were dosed with MTD (2 mg/kg) of Conjugate 57. Octreotide, DM1, cisplatin, and etoposide doses were equivalent to Conjugate 57.

[2] = Allometric scaling of clearance; set-up: species or system human; conditions: from mouse, rat and dog
IMR-32 cells = assay: In vitro competitive assay in IMR-32 cells; assay type: cell-based; conditions: absence of octreotide
Protocol: First, an in vitro competitive assay was conducted where IMR-32 cells were treated with Conjugate 57 in the absence or presence of an excess of octreotide. […] Pre-incubation with octreotide affected the inhibition.

H69 tumors = assay: H69 model tumor growth inhibition; assay type: in vivo
CYP2C8 = CYP2C8 (Homo sapiens, UniProt P10632); assay: CYP inhibition; assay type: in vitro ADME
Protocol: (§1) In a further study, the potential for Conjugate 57 to inhibit cytochrome P450 (CYP) was tested across 7 isozymes of CYP enzymes. […] The data also indicate Conjugate 57 presents no risk for causing drug-drug interactions (DDIs) by inhibiting the CYP clearance of other drugs. Lack of DDIs is critical when developing combination therapies.

CYP2C9 = CYP2C9 (Homo sapiens, UniProt P11712); assay: CYP inhibition; assay type: in vitro ADME
Protocol: as §1

CYP2B6 = CYP2B6 (Homo sapiens, UniProt P20813); assay: CYP inhibition; assay type: in vitro ADME
Protocol: as §1

CYP1A2 = CYP1A2 (Homo sapiens, UniProt P05177); assay: CYP inhibition; assay type: in vitro ADME
Protocol: as §1

CYP3A4 = CYP3A4 (Homo sapiens, UniProt P08684); assay: CYP inhibition; assay type: in vitro ADME
Protocol: as §1

CYP2D6 = CYP2D6 (Homo sapiens, UniProt P10635); assay: CYP inhibition; assay type: in vitro ADME
Protocol: as §1

CYP2C19 = CYP2C19 (Homo sapiens, UniProt P33261); assay: CYP inhibition; assay type: in vitro ADME
Protocol: as §1

[3] = test system: panel of GPCRs (119 targets); assay: Off-target binding to a panel of GPCRs; conditions: 1 uM concentration
Protocol: To further study the off-target binding of Conjugate 57, the binding of Conjugate 57 to a panel of GPCRs (119 targets) was measured at 1 uM concentration. Conjugate 57 has no activity against the panel of GPCRs.

SSTR5 = SSTR5 (Homo sapiens, UniProt P35346); assay: Radioligand-receptor binding assay, same method; conditions: read-out: Conjugate 57 Ki
Protocol: (§2) Two conjugates were assessed in an in vitro assay evaluating binding to the somatostatin receptor 2 (SSTR2). A radioligand-receptor binding assay was conducted at Eurofins Panlabs (Taiwan) to determine the affinity of conjugates described herein to the SSTR2. The assay measures binding of radiolabeled ligand, [^125I] labeled somatostatin, to human SSTR2 using membrane preparations from SSTR2 expressing CHO-K1 cells. Membranes were incubated with radiolabeled somatostatin (0.03 nM) in the presence of conjugate/compound starting at a dose of 10 uM using 6× serial dilutions to obtain a 10-pt curve. After a four hour incubation, membranes were filtered and washed 3× and counted to determine the remaining[^125 I] somatostatin bound to the receptor. IC50 values were determined by a non-linear, least squares regression analysis using MathIQ™ (ID Business Solutions Ltd., UK). The Ki values were calculated using the equation of Cheng and Prusoff (Cheng and Prusoff, Biochem. Pharmacol. 22:3099-3108, 1973) using the observed IC50 of the tested conjugate/compound, the concentration of radioligand employed in the assay, and the historical values for the KD of the ligand obtained at Eurofins.
(§3) In another study, the binding of Conjugate 57 to the five SSTRs was measured with the same method. Conjugate 57 binds selectively and with high affinity to SSTR2.

SSTR3 = SSTR3 (Homo sapiens, UniProt P32745); assay: Radioligand-receptor binding assay, same method; conditions: read-out: Conjugate 57 Ki
Protocol: as §2, §3

SSTR4 = SSTR4 (Homo sapiens, UniProt P31391); assay: Radioligand-receptor binding assay, same method; conditions: read-out: Conjugate 57 Ki
Protocol: as §2, §3

SSTR1 = SSTR1 (Homo sapiens, UniProt P30872); assay: Radioligand-receptor binding assay, same method; conditions: read-out: Conjugate 57 Ki
Protocol: as §2, §3

CYP3A4, sequence (P08684 whole entry): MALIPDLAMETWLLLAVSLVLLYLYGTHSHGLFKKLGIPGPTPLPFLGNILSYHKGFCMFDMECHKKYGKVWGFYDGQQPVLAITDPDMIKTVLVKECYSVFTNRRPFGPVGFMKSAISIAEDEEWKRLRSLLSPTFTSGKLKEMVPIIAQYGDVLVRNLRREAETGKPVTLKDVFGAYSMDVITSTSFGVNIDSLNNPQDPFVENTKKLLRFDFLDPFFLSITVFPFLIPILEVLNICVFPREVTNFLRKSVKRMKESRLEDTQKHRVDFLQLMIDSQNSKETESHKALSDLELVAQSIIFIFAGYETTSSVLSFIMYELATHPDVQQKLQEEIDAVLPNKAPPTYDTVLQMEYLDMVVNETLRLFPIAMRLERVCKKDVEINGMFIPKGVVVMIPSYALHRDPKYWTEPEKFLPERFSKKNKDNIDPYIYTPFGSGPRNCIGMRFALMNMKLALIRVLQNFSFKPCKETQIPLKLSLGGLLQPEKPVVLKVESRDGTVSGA
CYP1A2, sequence (P05177 whole entry): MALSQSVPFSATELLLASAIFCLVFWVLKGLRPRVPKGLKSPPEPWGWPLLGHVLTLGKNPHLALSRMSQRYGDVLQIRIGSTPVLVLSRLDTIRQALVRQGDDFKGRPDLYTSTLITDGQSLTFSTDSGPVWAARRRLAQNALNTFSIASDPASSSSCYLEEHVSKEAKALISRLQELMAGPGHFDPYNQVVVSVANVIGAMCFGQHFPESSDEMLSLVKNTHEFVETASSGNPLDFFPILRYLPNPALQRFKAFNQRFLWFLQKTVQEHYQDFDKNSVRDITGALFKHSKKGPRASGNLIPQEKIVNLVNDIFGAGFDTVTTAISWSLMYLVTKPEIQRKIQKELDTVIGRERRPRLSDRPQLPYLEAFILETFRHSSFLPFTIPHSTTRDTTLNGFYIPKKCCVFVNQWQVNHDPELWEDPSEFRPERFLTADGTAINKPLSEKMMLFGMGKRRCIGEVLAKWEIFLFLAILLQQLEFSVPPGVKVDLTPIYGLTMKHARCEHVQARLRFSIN
SSTR3, sequence (P32745 whole entry): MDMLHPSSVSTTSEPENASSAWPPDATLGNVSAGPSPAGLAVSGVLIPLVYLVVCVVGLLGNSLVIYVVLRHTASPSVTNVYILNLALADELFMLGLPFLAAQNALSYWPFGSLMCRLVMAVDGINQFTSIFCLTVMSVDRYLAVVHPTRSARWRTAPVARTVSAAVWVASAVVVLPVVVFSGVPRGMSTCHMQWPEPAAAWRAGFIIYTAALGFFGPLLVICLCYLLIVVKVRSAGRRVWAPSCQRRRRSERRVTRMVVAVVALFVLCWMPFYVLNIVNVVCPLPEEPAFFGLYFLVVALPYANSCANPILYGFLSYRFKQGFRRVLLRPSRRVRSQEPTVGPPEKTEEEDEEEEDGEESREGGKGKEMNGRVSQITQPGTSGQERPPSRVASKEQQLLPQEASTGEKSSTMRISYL
SSTR5, sequence (P35346 whole entry): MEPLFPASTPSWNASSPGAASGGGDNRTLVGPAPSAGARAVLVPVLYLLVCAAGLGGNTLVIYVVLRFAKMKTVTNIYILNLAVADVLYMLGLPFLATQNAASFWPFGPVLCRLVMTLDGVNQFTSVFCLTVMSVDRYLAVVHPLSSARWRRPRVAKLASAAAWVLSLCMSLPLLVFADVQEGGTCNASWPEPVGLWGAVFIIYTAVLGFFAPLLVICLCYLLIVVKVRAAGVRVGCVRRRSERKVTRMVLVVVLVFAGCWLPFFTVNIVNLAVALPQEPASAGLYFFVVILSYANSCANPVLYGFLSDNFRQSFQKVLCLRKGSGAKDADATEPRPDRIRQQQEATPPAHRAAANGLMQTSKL
SSTR4, sequence (P31391 whole entry): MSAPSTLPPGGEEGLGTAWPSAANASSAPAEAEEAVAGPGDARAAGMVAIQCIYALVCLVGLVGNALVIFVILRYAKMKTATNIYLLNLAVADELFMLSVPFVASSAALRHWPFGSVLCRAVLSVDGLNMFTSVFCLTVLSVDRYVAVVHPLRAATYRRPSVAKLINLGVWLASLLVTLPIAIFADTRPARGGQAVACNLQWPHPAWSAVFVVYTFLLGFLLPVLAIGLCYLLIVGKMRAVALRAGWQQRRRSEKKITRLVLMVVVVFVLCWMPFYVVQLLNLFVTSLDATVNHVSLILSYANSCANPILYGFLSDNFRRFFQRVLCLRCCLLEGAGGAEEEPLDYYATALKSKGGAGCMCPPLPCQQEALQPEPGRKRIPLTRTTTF
SSTR1, sequence (P30872 whole entry): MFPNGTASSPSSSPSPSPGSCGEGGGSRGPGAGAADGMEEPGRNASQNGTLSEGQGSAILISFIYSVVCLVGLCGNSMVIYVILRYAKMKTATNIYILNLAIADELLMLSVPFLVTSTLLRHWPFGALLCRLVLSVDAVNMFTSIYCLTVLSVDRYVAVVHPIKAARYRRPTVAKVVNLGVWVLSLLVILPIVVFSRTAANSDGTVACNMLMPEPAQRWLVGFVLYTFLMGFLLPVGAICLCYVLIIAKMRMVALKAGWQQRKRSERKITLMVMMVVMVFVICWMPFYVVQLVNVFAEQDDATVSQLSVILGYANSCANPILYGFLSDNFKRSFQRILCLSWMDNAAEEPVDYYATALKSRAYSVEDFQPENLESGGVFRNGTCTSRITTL
CYP2C8, sequence (P10632 whole entry): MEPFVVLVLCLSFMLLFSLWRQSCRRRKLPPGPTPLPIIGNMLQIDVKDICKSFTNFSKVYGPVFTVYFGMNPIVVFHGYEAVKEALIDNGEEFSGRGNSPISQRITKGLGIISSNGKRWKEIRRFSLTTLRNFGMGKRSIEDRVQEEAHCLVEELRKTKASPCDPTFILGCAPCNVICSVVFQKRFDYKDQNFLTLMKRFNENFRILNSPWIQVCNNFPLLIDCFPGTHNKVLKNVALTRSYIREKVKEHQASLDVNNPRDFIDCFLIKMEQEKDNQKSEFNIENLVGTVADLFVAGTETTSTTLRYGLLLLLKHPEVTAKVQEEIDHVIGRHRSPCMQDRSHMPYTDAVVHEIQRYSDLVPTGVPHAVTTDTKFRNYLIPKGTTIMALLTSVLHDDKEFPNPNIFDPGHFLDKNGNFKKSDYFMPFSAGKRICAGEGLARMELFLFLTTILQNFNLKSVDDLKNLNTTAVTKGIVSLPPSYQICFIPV
CYP2C9, sequence (P11712 whole entry): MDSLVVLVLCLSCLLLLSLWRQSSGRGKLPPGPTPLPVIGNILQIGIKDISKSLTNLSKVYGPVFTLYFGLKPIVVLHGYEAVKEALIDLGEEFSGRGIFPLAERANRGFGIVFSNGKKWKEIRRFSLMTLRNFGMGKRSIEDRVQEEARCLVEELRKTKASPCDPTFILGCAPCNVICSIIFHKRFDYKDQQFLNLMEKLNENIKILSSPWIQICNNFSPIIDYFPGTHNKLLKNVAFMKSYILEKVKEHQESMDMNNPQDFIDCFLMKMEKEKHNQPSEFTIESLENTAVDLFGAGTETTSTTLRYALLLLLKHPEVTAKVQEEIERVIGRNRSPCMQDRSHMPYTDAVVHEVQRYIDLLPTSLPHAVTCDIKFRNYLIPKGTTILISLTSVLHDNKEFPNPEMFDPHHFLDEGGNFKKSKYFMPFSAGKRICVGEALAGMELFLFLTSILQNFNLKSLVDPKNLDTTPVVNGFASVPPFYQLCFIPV
CYP2D6, sequence (P10635 whole entry): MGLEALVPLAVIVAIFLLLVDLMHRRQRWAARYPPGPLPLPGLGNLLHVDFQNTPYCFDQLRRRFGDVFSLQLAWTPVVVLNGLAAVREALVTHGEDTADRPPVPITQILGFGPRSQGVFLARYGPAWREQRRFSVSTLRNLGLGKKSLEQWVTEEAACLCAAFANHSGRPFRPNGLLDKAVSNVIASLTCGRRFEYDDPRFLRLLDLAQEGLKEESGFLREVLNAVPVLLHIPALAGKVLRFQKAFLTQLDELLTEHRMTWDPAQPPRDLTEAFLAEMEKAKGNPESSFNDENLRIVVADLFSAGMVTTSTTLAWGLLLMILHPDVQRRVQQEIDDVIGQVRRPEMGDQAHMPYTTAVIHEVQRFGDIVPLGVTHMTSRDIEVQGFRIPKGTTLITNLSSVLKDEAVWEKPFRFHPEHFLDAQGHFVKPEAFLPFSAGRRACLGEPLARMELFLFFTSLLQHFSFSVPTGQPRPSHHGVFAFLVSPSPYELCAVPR
CYP2B6, sequence (P20813 whole entry): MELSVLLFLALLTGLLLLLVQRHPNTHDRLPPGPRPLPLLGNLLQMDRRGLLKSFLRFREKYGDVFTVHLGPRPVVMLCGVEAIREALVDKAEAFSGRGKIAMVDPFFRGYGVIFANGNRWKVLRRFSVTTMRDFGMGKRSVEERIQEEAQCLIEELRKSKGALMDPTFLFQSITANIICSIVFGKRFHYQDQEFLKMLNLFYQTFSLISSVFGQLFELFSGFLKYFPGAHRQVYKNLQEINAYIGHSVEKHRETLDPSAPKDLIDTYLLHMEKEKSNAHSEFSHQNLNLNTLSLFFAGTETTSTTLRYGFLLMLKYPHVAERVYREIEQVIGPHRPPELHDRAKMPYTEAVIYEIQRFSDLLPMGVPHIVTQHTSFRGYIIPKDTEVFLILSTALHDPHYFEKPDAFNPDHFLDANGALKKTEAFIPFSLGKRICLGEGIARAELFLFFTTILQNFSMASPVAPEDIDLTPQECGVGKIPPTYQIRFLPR

For `COc1cc2cc(c1Cl)N(C)C(=O)C[C@H](OC(=O)[C@H](C)N(C)C(=O)CCSSC[C@H](NC(=O)[C@@H]1CSSC[C@H](NC(=O)[C@H](N)Cc3ccccc3)C(=O)N[C@@H](Cc3ccc(O)cc3)C(=O)N[C@H](Cc3c[nH]c4ccccc34)C(=O)N[C@@H](CCCCN)C(=O)N[C@@H]([C@@H](C)O)C(=O)N1)C(N)=O)[C@]1(C)O[C@H]1[C@H](C)[C@@H]1C[C@@](O)(NC(=O)O1)[C@H](OC)/C=C/C=C(\C)C2` [Conjugate 57], the “tumor response (tumor volume)” value [1] was “complete regression”, the “clearance in human predicted by allometric scaling” value [2] was “low clearance” and the “growth of IMR-32 cells” value (IMR-32 cells) was “inhibited the growth of IMR-32 cells”. For the same molecule, the “TGI % Day 8” value (H69 tumors; Conjugate 57 1 mg/kg) was 50.1%, the “TGI % Day 11” value (H69 tumors; Conjugate 57 1 mg/kg) was 61.4% and the “TGI % Day 14” value (H69 tumors; Conjugate 57 1 mg/kg) was 60.4%. The “TGI % Day 19” value (H69 tumors; Conjugate 57 1 mg/kg) was 63%, the “TGI % Day 22” value (H69 tumors; Conjugate 57 1 mg/kg) was 58.4% and the “TGI % Day 8” value (H69 tumors; Conjugate 57 2 mg/kg) was 63.8%. For the same molecule, the “TGI % Day 11” value (H69 tumors; Conjugate 57 2 mg/kg) was 82.8%, the “TGI % Day 14” value (H69 tumors; Conjugate 57 2 mg/kg) was 87.9% and the “TGI % Day 19” value (H69 tumors; Conjugate 57 2 mg/kg) was 95.5%. For the same molecule, the “TGI % Day 22” value (H69 tumors; Conjugate 57 2 mg/kg) was 97.8%, the pIC50 (CYP2C8) was less than 5.00 and the pIC50 (CYP2C9) was less than 5.00. For the same molecule, the pIC50 (CYP2B6) was less than 5.00, the pIC50 (CYP1A2) was less than 5.00 and the pIC50 (CYP3A4; CYP3A4 Midazolam) was less than 5.00. It also gave a pIC50 (CYP3A4; CYP3A4 Testosterone) of less than 5.00, a pIC50 (CYP2D6) of less than 5.00 and a pIC50 (CYP2C19) of less than 5.00. For the same molecule, the “activity against the panel of GPCRs” value [3] was “no activity”, the pKi (SSTR5) was 8.02 and the pKi (SSTR3) was 7.70. For the same molecule, the pKi (SSTR4) was 5.26 and the pKi (SSTR1) was 6.51.
